Measurements: ChEMBL document CHEMBL4304782, “Antioxidant, Anti-inflammatory, and Neuroprotective Effects of Novel Vinyl Sulfonate Compounds as Nrf2 Activator” (ACS Med Chem Lett, 2019)
pEC50: −log10 of the molar value.

Molecular target: T1, Nuclear factor erythroid 2-related factor 2 (Homo sapiens, UniProt Q16236)
T1 sequence (Q16236 whole entry): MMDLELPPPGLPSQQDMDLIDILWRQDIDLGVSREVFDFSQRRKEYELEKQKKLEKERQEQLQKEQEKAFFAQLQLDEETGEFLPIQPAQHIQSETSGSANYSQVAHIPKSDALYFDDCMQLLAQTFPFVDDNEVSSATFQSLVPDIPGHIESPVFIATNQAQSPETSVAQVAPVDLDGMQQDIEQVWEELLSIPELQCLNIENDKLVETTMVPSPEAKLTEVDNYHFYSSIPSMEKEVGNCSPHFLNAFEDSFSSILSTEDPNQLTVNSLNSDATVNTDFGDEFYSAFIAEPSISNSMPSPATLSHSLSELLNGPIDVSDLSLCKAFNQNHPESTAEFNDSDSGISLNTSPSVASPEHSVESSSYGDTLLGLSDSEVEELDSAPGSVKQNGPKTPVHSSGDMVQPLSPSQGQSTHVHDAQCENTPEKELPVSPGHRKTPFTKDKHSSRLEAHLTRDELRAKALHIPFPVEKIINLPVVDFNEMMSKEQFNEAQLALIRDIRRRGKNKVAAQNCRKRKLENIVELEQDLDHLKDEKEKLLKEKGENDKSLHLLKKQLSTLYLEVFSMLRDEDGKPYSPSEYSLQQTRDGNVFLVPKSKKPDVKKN
Assay: Activation of ED-tagged Nrf2 in human U2OS cells co-expressing Keap1 assessed as induction of NRF2 translocation to nucleus after 6 hrs by beta-galactosidase based chemiluminescent assay
Type: cell-based

Row | SMILES | pEC50
1 | COc1ccccc1OS(=O)(=O)/C=C/c1ccc(Cl)cc1 | 5.87
2 | COc1ccccc1OS(=O)(=O)/C=C/c1cccc(Cl)c1 | 6.16
